In PMC11129182, “Development of Inhibitors, Probes, and PROTAC Provides a Complete Toolbox to Study PARK7 in the Living Cell” (Journal of Medicinal Chemistry, 2024):

Target: T1, PARK7 (Homo sapiens, UniProt Q99497)
T1 sequence (Q99497 1-189): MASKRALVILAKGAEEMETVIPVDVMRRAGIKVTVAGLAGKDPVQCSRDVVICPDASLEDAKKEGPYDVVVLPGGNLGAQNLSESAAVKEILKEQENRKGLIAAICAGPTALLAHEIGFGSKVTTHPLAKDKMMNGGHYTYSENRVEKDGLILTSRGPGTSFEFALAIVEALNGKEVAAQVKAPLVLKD
Test: High-throughput screen of the crude compound library, PARK7 fluorescence polarization (FP) assay with FP reagent JYQ-107
Format: biochemical
Details: 1.25 µM, crude compound library, FP reagent JYQ-107; read-out: HTS FP assay %Inhibition (1.25 µM)

Row | SMILES | inhibition at 1.25 µM [%]
1 | N#CN1CC[C@@H](C(=O)Nc2nc3c(s2)CN(C(=O)c2cn[nH]c2C2CC2)CC3)C1 [compound 357] | 69.7
2 | N#CN1CC[C@@H](C(=O)Nc2nc3c(s2)CN(C(=O)C2CCCN(c4ncccc4C(F)(F)F)C2)CC3)C1 (stereo partly drawn) [compound 358] | 77.6
3 | N#CN1CC[C@@H](C(=O)Nc2nc3c(s2)CN(C(=O)c2nn(-c4ccccc4)c(=O)[nH]c2=O)CC3)C1 [compound 359] | 67.9
4 | Cn1cc(-c2nc(C(=O)N3CCc4nc(NC(=O)[C@@H]5CCN(C#N)C5)sc4C3)cs2)cn1 [compound 360] | 72.2
5 | Cc1n[nH]c(C)c1Cc1ccc(C(=O)N2CCc3nc(NC(=O)[C@@H]4CCN(C#N)C4)sc3C2)o1 [compound 363] | 78.9
6 | CC1=NN(c2cccc(Br)c2)C(=O)C1CC(=O)N1CCc2nc(NC(=O)[C@@H]3CCN(C#N)C3)sc2C1 (stereo partly drawn) [compound 364] | 73
7 | N#CN1CC[C@@H](C(=O)Nc2nc3c(s2)CN(C(=O)c2ccc(Cn4ccccc4=O)o2)CC3)C1 [compound 366] | 79.5
8 | N#CN1CC[C@@H](C(=O)Nc2nc3c(s2)CN(C(=O)c2cnc(-c4cccnc4)s2)CC3)C1 [compound 368] | 69.2
9 | N#CN1CC[C@@H](C(=O)Nc2nc3c(s2)CN(C(=O)c2cnn(CC4CCC4)c2)CC3)C1 [compound 372] | 81.6
10 | N#CN1CC[C@@H](C(=O)Nc2nc3c(s2)CN(C(=O)Cc2csc(C4CC4)n2)CC3)C1 [compound 373] | 81.4
11 | N#CN1CC[C@@H](C(=O)Nc2nc3c(s2)CN(C(=O)c2cc(C4CCC4)on2)CC3)C1 [compound 374] | 84
12 | N#CN1CC[C@@H](C(=O)Nc2nc3c(s2)CN(C(=O)C(c2ccccc2)n2cccc2)CC3)C1 (stereo partly drawn) [compound 375] | 68.5
13 | N#CN1CC[C@@H](C(=O)Nc2nc3c(s2)CN(C(=O)c2nc(N4CCOCC4)ncc2Cl)CC3)C1 [compound 376] | 70.8
14 | N#CN1CC[C@@H](C(=O)Nc2nc3c(s2)CN(C(=O)C2CCCCN2S(=O)(=O)c2ccc(Br)s2)CC3)C1 (stereo partly drawn) [compound 377] | 76.2
15 | N#CN1CC[C@@H](C(=O)Nc2nc3c(s2)CN(C(=O)c2ccc(-c4ncon4)cc2)CC3)C1 [compound 379] | 75.2
16 | Cn1cc(-c2cc(C(=O)N3CCc4nc(NC(=O)[C@@H]5CCN(C#N)C5)sc4C3)no2)cn1 [compound 384] | 83
17 | CSCCC(NC(C)=O)C(=O)N1CCc2nc(NC(=O)[C@@H]3CCN(C#N)C3)sc2C1 (stereo partly drawn) [compound 388] | -53.2
18 | CC(=O)NCC(=O)N1CCc2nc(NC(=O)[C@@H]3CCN(C#N)C3)sc2C1 [compound 389] | 71.7

Row | SMILES | inhibition at 1.25 µM [%]
19 | CC(C)CC(=O)N1CCc2nc(NC(=O)[C@@H]3CCN(C#N)C3)sc2C1 [compound 390] | 67.9
20 | CC(C)C(=O)N1CCc2nc(NC(=O)[C@@H]3CCN(C#N)C3)sc2C1 [compound 392] | 63
21 | CCCC(=O)N1CCc2nc(NC(=O)[C@@H]3CCN(C#N)C3)sc2C1 [compound 394] | 70.5
22 | COc1ccc(C)cc1C(=O)N1CCc2nc(NC(=O)[C@@H]3CCN(C#N)C3)sc2C1 [compound 395] | 84.8
23 | Cc1cncc(C(=O)N2CCc3nc(NC(=O)[C@@H]4CCN(C#N)C4)sc3C2)c1 [compound 397] | 68.5
24 | N#CN1CC[C@@H](C(=O)Nc2nc3c(s2)CN(C(=O)CCN2C(=O)C=CC2=O)CC3)C1 [compound 398] | 65.7
25 | C#CCCC(=O)N1CCc2nc(NC(=O)[C@@H]3CCN(C#N)C3)sc2C1 [compound 401] | 82.4
26 | N#CN1CC[C@@H](C(=O)Nc2nc3c(s2)CN(C(=O)c2cnccn2)CC3)C1 [compound 402] | 85.1
27 | Cn1c(=O)c2c(ncn2CC(=O)N2CCc3nc(NC(=O)[C@@H]4CCN(C#N)C4)sc3C2)n(C)c1=O [compound 405] | 67.9
28 | N#CN1CC[C@@H](C(=O)Nc2nc3c(s2)CN(C(=O)CNC(=O)c2ccccc2)CC3)C1 [compound 406] | 82.4
29 | N#CN1CC[C@@H](C(=O)Nc2nc3c(s2)CN(C(=O)CCCCBr)CC3)C1 [compound 410] | 47.7
30 | N#CN1CC[C@@H](C(=O)Nc2nc3c(s2)CN(C(=O)CCCCCBr)CC3)C1 [compound 412] | 52.5
31 | N#CN1CC[C@@H](C(=O)Nc2nc3c(s2)CN(C(=O)c2ccccc2CCc2ccccc2)CC3)C1 [compound 413] | 79.7
32 | C#CCCCC(=O)N1CCc2nc(NC(=O)[C@@H]3CCN(C#N)C3)sc2C1 [compound 416] | 75.5
33 | N#CN1CC[C@@H](C(=O)Nc2nc3c(s2)CN(C(=O)c2nccc4ccccc24)CC3)C1 [compound 417] | 82.2
34 | Cc1c(Br)cccc1C(=O)N1CCc2nc(NC(=O)[C@@H]3CCN(C#N)C3)sc2C1 [compound 418] | 81
35 | Cc1ccc(Br)c(C(=O)N2CCc3nc(NC(=O)[C@@H]4CCN(C#N)C4)sc3C2)c1 [compound 420] | 83.3
36 | N#CN1CC[C@@H](C(=O)Nc2nc3c(s2)CN(C(=O)c2sccc2Br)CC3)C1 [compound 421] | 79.7

Results, then the compound that gave them:

Row | inhibition at 1.25 µM [%] | SMILES
37 | 72 | CNS(=O)(=O)c1ccc(-c2ccccc2OC(F)(F)F)c(C(=O)N2CCc3nc(NC(=O)[C@@H]4CCN(C#N)C4)sc3C2)c1 [compound 352]
38 | 73.2 | N#CN1CC[C@@H](C(=O)Nc2nc3c(s2)CN(C(=O)Cc2ccc(OCc4ccccn4)cc2)CC3)C1 [compound 353]
39 | 72.5 | N#CN1CC[C@@H](C(=O)Nc2nc3c(s2)CN(C(=O)c2cc(S(=O)(=O)Nc4cccc(F)c4)ccc2F)CC3)C1 [compound 354]
40 | 85.3 | N#CN1CC[C@@H](C(=O)Nc2nc3c(s2)CN(C(=O)c2ncn(-c4ccccc4)n2)CC3)C1 [compound 355]
41 | 76.2 | N#CN1CC[C@@H](C(=O)Nc2nc3c(s2)CN(C(=O)C2CCCN(c4ccc(Cl)nn4)C2)CC3)C1 (stereo partly drawn) [compound 356]
42 | 82.9 | N#CN1CC[C@@H](C(=O)Nc2nc3c(s2)CN(C(=O)c2ncsc2Cc2ccccc2)CC3)C1 [compound 361]
43 | 71.7 | N#CN1CC[C@@H](C(=O)Nc2nc3c(s2)CN(C(=O)C2CCN(C(=O)N4CCOCC4)CC2)CC3)C1 [compound 362]
44 | 78.3 | CCn1ccc(-c2cc(C(=O)N3CCc4nc(NC(=O)[C@@H]5CCN(C#N)C5)sc4C3)no2)n1 [compound 365]
45 | 65 | CC(C)n1nccc1[C@@H]1OCC[C@H]1C(=O)N1CCc2nc(NC(=O)[C@@H]3CCN(C#N)C3)sc2C1 [compound 367]
46 | 72.4 | N#CN1CC[C@@H](C(=O)Nc2nc3c(s2)CN(C(=O)C2CC(=O)N(OCc4ccccc4)C2)CC3)C1 (stereo partly drawn) [compound 370]
47 | 74.8 | N#CN1CC[C@@H](C(=O)Nc2nc3c(s2)CN(C(=O)CC2CCN(c4ccc(Cl)nn4)CC2)CC3)C1 [compound 371]
48 | 87 | CC(C)c1cc(C(=O)N2CCc3nc(NC(=O)[C@@H]4CCN(C#N)C4)sc3C2)n(-c2ccccc2)n1 [compound 378]
49 | 80.3 | N#CN1CC[C@@H](C(=O)Nc2nc3c(s2)CN(C(=O)C(CCc2ccccc2)c2ccccc2)CC3)C1 (stereo partly drawn) [compound 380]
50 | 75.9 | COC1CC(C(=O)N2CCc3nc(NC(=O)[C@@H]4CCN(C#N)C4)sc3C2)N(C(=O)OCc2ccccc2)C1 (stereo partly drawn) [compound 382]
51 | 87.5 | Cc1cccc(COc2cccc(C(=O)N3CCc4nc(NC(=O)[C@@H]5CCN(C#N)C5)sc4C3)c2)c1 [compound 383]
52 | 81 | N#CN1CC[C@@H](C(=O)Nc2nc3c(s2)CN(C(=O)Cc2ccc(NS(=O)(=O)c4cccc(C(F)(F)F)c4)cc2)CC3)C1 [compound 385]
53 | 74.8 | N#CN1CC[C@@H](C(=O)Nc2nc3c(s2)CN(C(=O)c2ccc(S(=O)(=O)N4CCCCCC4)cc2)CC3)C1 [compound 387]
54 | 73.6 | N#CN1CC[C@@H](C(=O)Nc2nc3c(s2)CN(C(=O)c2ccccc2I)CC3)C1 [compound 391]
55 | 80.3 | Cc1cc(OCC(=O)N2CCc3nc(NC(=O)[C@@H]4CCN(C#N)C4)sc3C2)ccc1C(C)C [compound 393]
56 | 65.2 | CC(C)(C)OC(=O)Nc1ccccc1C(=O)N1CCc2nc(NC(=O)[C@@H]3CCN(C#N)C3)sc2C1 [compound 396]
57 | 58.2 | N#CN1CC[C@@H](C(=O)Nc2nc3c(s2)CN(C(=O)Cc2ccc([N+](=O)[O-])cc2)CC3)C1 [compound 399]
58 | 80.8 | N#CN1CC[C@@H](C(=O)Nc2nc3c(s2)CN(C(=O)Cc2ccccc2[N+](=O)[O-])CC3)C1 [compound 400]
59 | 84.3 | N#CN1CC[C@@H](C(=O)Nc2nc3c(s2)CN(C(=O)c2ccc(/N=N/c4ccccc4)cc2)CC3)C1 [compound 403]
60 | 58.2 | N#CN1CC[C@@H](C(=O)Nc2nc3c(s2)CN(C(=O)Cc2ccncc2)CC3)C1 [compound 404]
61 | 58.7 | N#CN1CC[C@@H](C(=O)Nc2nc3c(s2)CN(C(=O)c2ccc(B(O)O)cc2)CC3)C1 [compound 407]
62 | 75.4 | CC(C)(C)OC(=O)NCC(=O)N1CCc2nc(NC(=O)[C@@H]3CCN(C#N)C3)sc2C1 [compound 408]
63 | 41.8 | N#CN1CC[C@@H](C(=O)Nc2nc3c(s2)CN(C(=O)C(Br)c2ccccc2)CC3)C1 (stereo partly drawn) [compound 411]
64 | -19.6 | N#CN1CC[C@@H](C(=O)Nc2nc3c(s2)CN(C(=O)c2ccc(CBr)cc2)CC3)C1 [compound 414]
65 | 74 | CC(=O)CCCCC(=O)N1CCc2nc(NC(=O)[C@@H]3CCN(C#N)C3)sc2C1 [compound 419]

Same assay, conditions: read-out: HTS FP assay %Inhibition (1.25 µM)

Row | SMILES | inhibition at 1.25 µM [%]
66 | CC(C)(C)OC(=O)N[C@@H](Cc1cn(-c2ccc([N+](=O)[O-])cc2[N+](=O)[O-])cn1)C(=O)N1CCc2nc(NC(=O)[C@@H]3CCN(C#N)C3)sc2C1 [compound 409] | 75.4
